Where a name gives a salt, the structure may show the parent alone.
Assays:
[1] = test system: patients undergoing elective cesarean delivery; experiment: Randomized double-blind clinical trial, efficacy of TAP block after cesarean delivery (opioid consumption, VAS pain); type: in vivo, human; settings: mITT
[2] = cited from earlier work
[3] = test system: patients undergoing elective cesarean delivery; experiment: Clinical trial safety: treatment-emergent adverse events through day 14 (safety analysis set)
[4] = TEAEs occurring in >5% of patients in either group
[5] = safety analysis set, through day 14
[6] = treatment-relatedness determined by the investigator

## CCCCN1CCCCC1C(=O)Nc1c(C)cccc1C (centres unmarked) [BUPI HCl alone, bupivacaine hydrochloride]
[1]; 24 hours
  percentage of opioid-free patients at 24 hours: 93.7%
[1]; 48 hours
  percentage of opioid-free patients at 48 hours: 50.6%
[1]; 72 hours
  percentage of opioid-free patients at 72 hours: 48.6%
  percentage of opioid-spared patients at 72 hours: 24.7%
[1]; median
  median time to first opioid rescue: 41.1 h
[1]; through 72 hours, hydrochloride
  LSM (SE) AUC0-72 of VAS pain intensity scores through 72 hours: 178.5 (19.78)
[2]; 1.4 to 1.6 mL hyperbaric BUPI HCl 0.75%, spinal
  expected duration of action in spinal anesthesia: ~2 h
[2]; standard local anesthetics, TAP block background
  duration of analgesia: 5 to 8 h
[3]; [4]
  TEAE: Back pain: 5 (5.6) number (percentage)
  TEAE: Constipation: 4 (4.5) number (percentage)
  TEAE: Dizziness: 5 (5.6) number (percentage)
  TEAE: Headache: 10 (11.2) number (percentage)
  TEAE: Nausea: 11 (12.4) number (percentage)
  TEAE: Pruritus: 28 (31.5) number (percentage)
  TEAE: Rash: 3 (3.4) number (percentage)
  TEAE: Vomiting: 6 (6.7) number (percentage)
[3]; [5]
  Any TEAE: 50 (56.2) number (percentage)
  Any treatment-related TEAE: 9 (10.1) number (percentage)
  Fatal TEAE: 0 (0.0) number (percentage)
  Serious TEAE: 3 (3.4) number (percentage)
[3]; summary of results
  Serious TEAEs: ~3%
  fatal TEAEs: no fatal TEAEs
  patients who experienced a TEAE: 56.2%
[3]; [6]
  Treatment-related TEAE: Back pain: 1 (1.1) number (percentage)
  Treatment-related TEAE: Dizziness: 0 (0.0) number (percentage)
  Treatment-related TEAE: Dysuria: 1 (1.1) number (percentage)
  Treatment-related TEAE: Nausea: 0 (0.0) number (percentage)
  Treatment-related TEAE: Pruritus: 8 (9.0) number (percentage)
  Treatment-related TEAE: Vomiting: 0 (0.0) number (percentage)
